Source: patent US4975447A, “6-hydroxyethoxy-2-benzothiazolesulfonamide and topical treatment compositions and method for glaucoma” (University of Iowa Research Foundation, priority 1985, dated 1990)
Where “and” joins values, the source holds several entries; their conditions need not be identical. Identical values can stand only once.

Tests used:
[1] = tested on: eyes of rabbits (intraocular pressure); assay: Measurement of intraocular pressure ("Salted Rabbit Test"), applanation tonometry, topical 1% suspension; assay type: in vivo; settings: for Ave. change in IOP: 50 μl of 1% suspension q 2 min x 3
Description: ("Salted Rabbit Test") (IOP)
Rabbits (3-4 months old) were maintained on […] solution in place of drinking water for 3 weeks prior to the determination of IOP because it has been shown that a diet deficient in sodium produces a variable response to this class of drugs. During this 3 week period numerous IOP measurements were made to familiarize the rabbits with this procedure. Baseline IOP measurements were determined by applanation tonometry following topical administration of 3 drops of 1% suspension of analog CAI inhibitor to one eye. The fellow eye received blank vehicle. The observer was masked. Each eye received 1 to 2 drops of proparacaine hydrochloride (0.5%) to anethetize the cornea prior to placing the sensor tip of the tonometer flot on the cornea. IOP measurements were determined over 180 minutes at 20 minute intervals. Changes in IOP were expressed as:
IOP change=IOP (dosed eye - control eye)t -IOP (dosed eye prior to
administration - control eye)t=O
Intraocular pressure (IOP) measurements of 6-hydroxyethoxy-2-benzothiazole sulfonamide in rabbits^a maintained on 3% sodium chloride drinking water following topical instillation.^b,c
^b The dose was 50 μl of a 1% suspension q 2 minutes for a total of 3 doses

[2] = tested on: lasered eyes of cynomologous monkeys (intraocular pressure); assay: Intraocular pressure by pneumatonometry, "DeSantis" test, laser-treated hypertensive right eye (OD); assay type: in vivo, cynomologous monkey; settings: for IOP (individual monkey) / Mean IOP / Mean % change of IOP / Mean % change of IOP versus control: OD (lasered)
Excerpt: (§1) Because there are certain differences in the eyes of rabbits and man, it was desired to test topical carbonic anhydrase inhibition by the compound of the present invention in a subhuman primate species to confirm the presence of activity by this route. The cynomologous monkey was chosen to represent the species. Because drug effects on intraocular pressure are sometimes less dramatic or not demonstrable using an eye that is normotensive, a test protocol known as the "DeSantis" test was developed. It involves testing the carbonic anhydrase inhibitor effects in eyes made hypertensive by laser treatment. […] After the eye was allowed to recover from the inflammatory process which accompanied the laser treatment, it was used to test the subject drugs.
(§2) Intraocular pressure (IOP) was determined using an Alcon Pneumatonograph after light corneal anesthesia with proparacaine, before and at 1, 3 and 7 hours after installation of drug to both eyes of each of six cynomologous monkeys per group. […] Animals were trained to sit in restraint chairs and to accept the pressure measurement. Following the measurement, residual anesthetic was washed out with saline.
(§3) Data for the intraocular pressure studies are presented in the attached tables, where the lasered eyes but not the normal eyes show significant reduction of intraocular pressure compared to control animals.
(§4) In the tables below "OD" refers to ocular dexter, and "OS" refers to ocular sinnister. This is simply another way of saying right and left eye. The designation number in the lefthand column of each table refers to the designation number assigned to each monkey. "SE" refers to standard error.

[3] = tested on: normal eyes of cynomologous monkeys (intraocular pressure); assay: Intraocular pressure by pneumatonometry, normal left eye (OS); assay type: in vivo, cynomologous monkey
Excerpt: as §1, §2, §3, §4

[4] = Table 1, 1.0% gel, 0 hr (before drug)
[5] = Table 2 (six days later), 1.0% gel, 0 hr (before drug)
[6] = Table 2 (six days later), 1.0% gel, 3 hr
[7] = Table 2 (six days later), 1.0% gel, 7 hr
[8] = Table 3, 3.0% gel, 0 hr (before drug)
[9] = Table 4, 3.0% gel, 0 hr (before drug)
[10] = Table 4, 3.0% gel, 0 hr (before drug), listed as 6-Hydroxyethoxy-2-benzothiazolesulfomaide
[11] = Table 4, 3.0% gel, 1 hr, listed as 6-Hydroxyethoxy-2-benzothiazolesulfomaide
[12] = Table 4, 3.0% gel, 3 hr, listed as 6-Hydroxyethoxy-2-benzothiazolesulfomaide
[13] = Table 4, 3.0% gel, 7 hr, listed as 6-Hydroxyethoxy-2-benzothiazolesulfomaide

In the case of `NS(=O)(=O)c1nc2ccc(OCCO)cc2s1` [6-hydroxyethoxy-2-benzothiazolesulfonamide], the “Ave. change in IOP” value ([1]; 20 min after dosing, N=12, probability N.S.) is reported as -0.2 mm Hg, the “Ave. change in IOP” value ([1]; 40 min after dosing, N=12, probability 0.07) is reported as -1.1 mm Hg and the “Ave. change in IOP” value ([1]; 60 min after dosing, N=12, probability 0.04) is reported as -1.1 mm Hg. For the same compound, the “Ave. change in IOP” value ([1]; 80 min after dosing, N=12, probability 0.12) was -0.8 mm Hg, the “Ave. change in IOP” value ([1]; 100 min after dosing, N=12, probability 0.04) was -1.2 mm Hg and the “Ave. change in IOP” value ([1]; 120 min after dosing, N=12, probability N.S.) was -0.5 mm Hg. For the same compound, the “Ave. change in IOP” value ([1]; 140 min after dosing, N=12, probability N.S.) was 0.2 mm Hg, the “Ave. change in IOP” value ([1]; 160 min after dosing, N=12, probability N.S.) was 0.3 mm Hg and the “Ave. change in IOP” value ([1]; 180 min after dosing, N=12, probability N.S.) was -0.2 mm Hg. For the same compound, the “effectiveness for topical treatment of glaucoma (in words)” value ([1]; rabbits) was “an effective treating composition for topical treatment of glaucoma”, the “Ave. change in IOP” value ([1]; time 0 (baseline), N=12 rabbits) was 0 mm Hg and the “IOP (individual monkey)” value [2, 4] was 28 mmHg and 46 mmHg and 35 mmHg and 48 mmHg and 38 mmHg and 25 mmHg. For the same compound, the “Mean IOP” value [2, 4] was 36.7 mmHg, the “IOP (individual monkey)” value ([2]; Table 1, 1.0% gel, 3 hr) was 23 mmHg and 36 mmHg and 30 mmHg and 40 mmHg and 34 mmHg and the “Mean % change of IOP” value ([2]; Table 1, 1.0% gel, 3 hr) was -14.9%. For the same compound, the “Mean IOP” value ([2]; Table 1, 1.0% gel, 3 hr) was 31.0 mmHg, the “IOP (individual monkey)” value ([2]; Table 1, 1.0% gel, 7 hr) was 24 mmHg and 46 mmHg and 33 mmHg and 41 mmHg and 34 mmHg and 25 mmHg and the “Mean % change of IOP” value ([2]; Table 1, 1.0% gel, 7 hr) was -7.5%. The “Mean IOP” value ([2]; Table 1, 1.0% gel, 7 hr) was 33.8 mmHg, the “IOP (individual monkey)” value [2, 5] was 51 mmHg and 52 mmHg and 34 mmHg and 38 mmHg and 28 mmHg and 30 mmHg and the “Mean IOP” value [2, 5] was 38.8 mmHg. For the same compound, the “IOP (individual monkey)” value [2, 6] was 38 mmHg and 50 mmHg and 29 mmHg and 35 mmHg and 27 mmHg and 26 mmHg, the “Mean % change of IOP” value [2, 6] was -11.5% and the “Mean IOP” value [2, 6] was 34.2 mmHg. For the same compound, the “IOP (individual monkey)” value [2, 7] was 36 mmHg and 48 mmHg and 28 mmHg and 37 mmHg and 24 mmHg and 32 mmHg, the “Mean % change of IOP” value [2, 7] was -10.8% and the “Mean IOP” value [2, 7] was 34.2 mmHg. For the same compound, the “IOP (individual monkey)” value [2, 8] was 50 mmHg and 35 mmHg and 33 mmHg and 55 mmHg and 40 mmHg and 44 mmHg, the “Mean IOP” value [2, 8] was 42.8 mmHg and the “IOP (individual monkey)” value ([2]; Table 3, 3.0% gel, 1 hr) was 45 mmHg and 33 mmHg and 30 mmHg and 52 mmHg and 35 mmHg and 50 mmHg. For the same compound, the “Mean % change of IOP versus control” value ([2]; Table 3, 3.0% gel, 1 hr) was -4.9%, the “Mean IOP” value ([2]; Table 3, 3.0% gel, 1 hr) was 40.8 mmHg and the “IOP (individual monkey)” value ([2]; Table 3, 3.0% gel, 3 hr) was 41 mmHg and 20 mmHg and 30 mmHg and 57 mmHg and 32 mmHg and 45 mmHg. For the same compound, the “Mean % change of IOP versus control” value ([2]; Table 3, 3.0% gel, 3 hr) was -14.0%, the “Mean IOP” value ([2]; Table 3, 3.0% gel, 3 hr) was 37.5 mmHg and the “IOP (individual monkey)” value ([2]; Table 3, 3.0% gel, 7 hr) was 37 mmHg and 23 mmHg and 25 mmHg and 55 mmHg and 33 mmHg and 40 mmHg. For the same compound, the “Mean % change of IOP versus control” value ([2]; Table 3, 3.0% gel, 7 hr) was -18.5%, the “Mean IOP” value ([2]; Table 3, 3.0% gel, 7 hr) was 35.5 mmHg and the “Mean % change of IOP” value [2, 9] was 0.0%. For the same compound, the “Mean IOP” value [2, 9] was 44.7 mmHg, the “IOP (individual monkey)” value [2, 10] was 38 mmHg and 55 mmHg and 37 mmHg and 42 mmHg and 50 mmHg and 46 mmHg and the “Mean % change of IOP” value ([2]; Table 4, 3.0% gel, 1 hr) was -10.1%. The “Mean IOP” value ([2]; Table 4, 3.0% gel, 1 hr) was 40.3 mmHg, the “IOP (individual monkey)” value [2, 11] was 37 mmHg and 50 mmHg and 32 mmHg and 30 mmHg and 53 mmHg and 40 mmHg and the “Mean % change of IOP” value ([2]; Table 4, 3.0% gel, 3 hr) was -15.0%. For the same compound, the “Mean IOP” value ([2]; Table 4, 3.0% gel, 3 hr) was 38.3 mmHg, the “IOP (individual monkey)” value [2, 12] was 33 mmHg and 47 mmHg and 29 mmHg and 21 mmHg and 45 mmHg and 55 mmHg and the “Mean % change of IOP” value ([2]; Table 4, 3.0% gel, 7 hr) was -16.8%. For the same compound, the “Mean IOP” value ([2]; Table 4, 3.0% gel, 7 hr) was 37.2 mmHg, the “IOP (individual monkey)” value [2, 13] was 35 mmHg and 55 mmHg and 28 mmHg and 38 mmHg and 32 mmHg and the “effectiveness for topical treatment of glaucoma (in words)” value ([2]; cynomologous monkeys) was “an effective treating composition for topical treatment of glaucoma”. The “IOP (individual monkey)” value [3, 4] was 33 mmHg and 19 mmHg and 24 mmHg and 23 mmHg and 20 mmHg, the “Mean IOP” value [3, 4] was 25.3 mmHg and the “IOP (individual monkey)” value ([3]; Table 1, 1.0% gel, 3 hr) was 34 mmHg and 20 mmHg and 25 mmHg and 19 mmHg and 38 mmHg. The “Mean % change of IOP” value ([3]; Table 1, 1.0% gel, 3 hr) was “+5.2%”, the “Mean IOP” value ([3]; Table 1, 1.0% gel, 3 hr) was 26.8 mmHg and the “IOP (individual monkey)” value ([3]; Table 1, 1.0% gel, 7 hr) was 34 mmHg and 25 mmHg and 28 mmHg and 22 mmHg and 19 mmHg and 41 mmHg. The “Mean % change of IOP” value ([3]; Table 1, 1.0% gel, 7 hr) was “+11.1%”, the “Mean IOP” value ([3]; Table 1, 1.0% gel, 7 hr) was 28.2 mmHg and the “IOP (individual monkey)” value [3, 5] was 30 mmHg and 22 mmHg and 25 mmHg and 27 mmHg and 24 mmHg. For the same compound, the “Mean IOP” value [3, 5] was 25.0 mmHg, the “IOP (individual monkey)” value [3, 6] was 29 mmHg and 23 mmHg and 26 mmHg and 27 mmHg and 24 mmHg and the “Mean % change of IOP” value [3, 6] was “+1.9%”. For the same compound, the “Mean IOP” value [3, 6] was 25.3 mmHg, the “IOP (individual monkey)” value [3, 7] was 27 mmHg and 23 mmHg and 28 mmHg and 24 mmHg and the “Mean % change of IOP” value [3, 7] was “+5.2%”. For the same compound, the “Mean IOP” value [3, 7] was 26.0 mmHg, the “IOP (individual monkey)” value [3, 8] was 27 mmHg and 24 mmHg and 22 mmHg and 26 mmHg and 30 mmHg and the “Mean IOP” value [3, 8] was 25.5 mmHg. For the same compound, the “IOP (individual monkey)” value ([3]; Table 3, 3.0% gel, 1 hr) was 25 mmHg and 29 mmHg and 24 mmHg and 30 mmHg, the “Mean % change of IOP” value ([3]; Table 3, 3.0% gel, 1 hr) was “+1.7%” and the “Mean IOP” value ([3]; Table 3, 3.0% gel, 1 hr) was 26.0 mmHg. The “IOP (individual monkey)” value ([3]; Table 3, 3.0% gel, 3 hr) was 23 mmHg and 27 mmHg and 28 mmHg and 25 mmHg, the “Mean % change of IOP” value ([3]; Table 3, 3.0% gel, 3 hr) was -0.4% and the “Mean IOP” value ([3]; Table 3, 3.0% gel, 3 hr) was 25.2 mmHg. The “IOP (individual monkey)” value ([3]; Table 3, 3.0% gel, 7 hr) was 23 mmHg and 25 mmHg and 20 mmHg and 29 mmHg and 26 mmHg, the “Mean % change of IOP” value ([3]; Table 3, 3.0% gel, 7 hr) was -0.6% and the “Mean IOP” value ([3]; Table 3, 3.0% gel, 7 hr) was 25.3 mmHg. The “Mean % change of IOP” value [3, 9] was 0.0%, the “Mean IOP” value [3, 9] was 23.3 mmHg and the “IOP (individual monkey)” value [3, 10] was 24 mmHg and 20 mmHg and 18 mmHg and 30 mmHg and 21 mmHg and 27 mmHg. The “Mean % change of IOP” value ([3]; Table 4, 3.0% gel, 1 hr) was 3.3%, the “Mean IOP” value ([3]; Table 4, 3.0% gel, 1 hr) was 23.8 mmHg and the “IOP (individual monkey)” value [3, 11] was 25 mmHg and 16 mmHg and 23 mmHg and 28 mmHg and 24 mmHg and 27 mmHg. For the same compound, the “Mean % change of IOP” value ([3]; Table 4, 3.0% gel, 3 hr) was -1.8%, the “Mean IOP” value ([3]; Table 4, 3.0% gel, 3 hr) was 22.7 mmHg and the “IOP (individual monkey)” value [3, 12] was 27 mmHg and 18 mmHg and 20 mmHg and 25 mmHg and 21 mmHg. The “Mean % change of IOP” value ([3]; Table 4, 3.0% gel, 7 hr) was 5.5%, the “Mean IOP” value ([3]; Table 4, 3.0% gel, 7 hr) was 24.3 mmHg and the “IOP (individual monkey)” value [3, 13] was 28 mmHg and 20 mmHg and 23 mmHg and 27 mmHg.
